Assay results reported in US7799794B2, “Treatment for cardiovascular disease” (Merck Sharp & Dohme Corp., priority 2000, dated 2010).
Where two headings read alike, the source gives them in different places.

Key:
Sprague-Dawley rats [1] = test: Allopurinol intervention or oxonic acid withdrawal in hyperuricemic rats: blood pressure (Example 3); format: in vivo, rat; details: allopurinol added at 7 weeks, OA/LSD continued
Source text: (§1) Rats were placed on the low sodium diet with oxonic acid for 7 weeks, and then were matched based on uric acid level and blood pressure in various groups to either receive allopurinol, have the oxonic acid withdrawn from the diet, or continue the oxonic acid/low salt diet. A control group of six rats were placed on the lowsodium diet alone for 11 weeks. All of these rats were sacrificed at week 11.
(§2) Am J Physiol 268:F1 164-76, 1995].
(§3) Am J Clin Pathol 1957; 28:152.]. Serum blood urea nitrogen was measured by a standard kit (Sigma, St Louis, Mo.).

Sprague-Dawley rats [2] = test: Renal findings at 7 weeks: immunohistochemistry and BUN (Example 2); format: in vivo, rat; details: low NaCl diet
Procedure: (§4) Rats were placed on a low sodium diet (NaCl, 0.125%) with or without 2% oxonic acid for 7 weeks. A third group were administered allopurinol in the drinking water (150 mg/L) with weekly adjustments of the dose depending on the uric acid level.
as §3
(§5) Renal biopsies were fixed in Methyl-Carnoy's, 10% formalin or 100% ethanol and embedded in paraffin. The presence of uric acid crystals was evaluated by staining 4-μm ethanol-fixed sections with de Galantha and modified Von Kossa stains. Kidney tissue from rats with acute uric acid nephropathy, induced with oxonic acid and uric acid administration was used as a positive control [Stavric, B., Johnson, W. J., and Grice, H. C., Uric acid nephropathy: An experimental model, Proc. Soc. Exp. Biol. Med. 130: 512-16 (1969).]. Light microscopy was performed in 4-μm sections of Methyl-Carnoy's fixed tissue stained with periodic acid Schiff (PAS) reagent or with hematoxylin and eosin.
(§6) Methyl-Carnoy's fixed tissue sections were analyzed by indirect immunoperoxidase [Lombardi, D., Gordon , K. L., Polinsky, P., Suga, S., Schwartz, S. M., and Johnson, R. J. Salt sensitive hypertension develops after transient exposure to angiotensin II. Hypertension 33:1013-1019, 1999] staining with the following primary antibodies: OP199, a goat polyclonal antibody against osteopontin (OPN)(gift of C. Giachelli, Univ of Wash., Seattle); ED-1, a monoclonal antibody to rat monocytes and macrophages (Serotec); goat antihuman type III collagen (Southern Biotechnology Associates Inc, Birminghan Ala.); and anti-renin, a mouse antibody to human renin (Sanofi Recherche, Montpellier, France). Sections were incubated with a secondary antibody followed by horseradish peroxidase-conjugated avidin D (Vector Laboratories, Burlingame, Calif.), diaminobenzidine (Sigma) with or without nickel chloride as a chromogen, and counsterstained with methyl green.
(§7) NOS1 was detected on formalin fixed tissue sections with a rabbit anti-rat neuronal nitric oxide synthase (Transduction Laboratories, Lexington, Ky.), followed by a biotinylated secondary antibody, diaminobenzidine with nickel chloride and counterstained with nuclear fast red.
(§8) All quantification was performed blinded. The tubular expression of osteopontin (OPN), which is a sensitive marker of tubulointerstitial injury, was calculated as the percent of renal cortex occupied by OPN-positive tubules [Lombardi, D., Gordon, K. L., Polinsky, P., Suga, S., Schwartz, S. M., and Johnson, R. J. Salt sensitive hypertension develops after transient exposure to angiotensin II. Hypertension 33:1013-1019, 1999]. Utilizing computer-assisted image analysis software (Optimas V6.2, Media Cybernetics, Silver Springs, Md.) and digitized images, the percent of area occupied by OPN positive tubules per 4 mm^2 field at a magnification of 50× was measured and the mean percent area calculated for each biopsy. The interstitial deposition of collagen type III was calculated as the % of renal cortex occupied by collagen III, noted by immunostaining, by computer image analysis. The mean number of interstitial macrophages (ED-1+cells) in each biopsy was calculated in a blinded manner by counting the total number of positive interstitial cortical cells in 20 sequentially selected 0.25 mm^2 grids at 200× magnification. Renin expression was quantified by the number of glomeruli with positive staining for juxtaglomerular renin using a minimum of 100 glomeruli in each biopsy as previously described [Eng, E., et al., Renal proliferation and phenotypic changes in rats with two-kidney, one-clip Goldblatt hypertension. Am J Hypertens 7:177-185 (1994)]; this has been shown previously to correlate with intrarenal renin content[Eng, E., et al., Renal proliferation and phenotypic changes in rats with two-kidney, one-clip Goldblatt hypertension. Am J Hypertens 7:177-185 (1994)]. […]

Sprague-Dawley rats [3] = test: Renal findings at 11 weeks: immunohistochemistry and BUN (Example 3); format: in vivo, rat; details: low NaCl diet, allopurinol added at 7 weeks
Procedure: as §1, §3, §5, §6, §7
as §8, with “hypertension.” for “hypertension. Am J Hypertens 7:177-185 (1994)]; this has been shown previously to correlate with intrarenal renin content[Eng, E., et al., Renal proliferation and phenotypic changes in rats with two-kidney, one-clip Goldblatt hypertension. Am J Hypertens 7:177-185 (1994)].”

Sprague-Dawley rats [4] = test: Oxonic acid on low sodium diet with or without allopurinol: blood pressure, uric acid (Example 2); format: in vivo, rat; details: allopurinol from the initiation of the oxonic acid diet, low salt
Procedure: All studies utilized adult male Sprague-Dawley rats (Simonsen Laboratories, Gilroy Calif.)(200-250 g).
as §4
Am J Physiol 268:F1164-76, 1995].
as §3

[5] = cited from earlier work
[6] = cited from earlier work; remark: listed apart in the source
Sprague-Dawley rats [7] = test: Enalapril or L-Arginine in hyperuricemic rats on low salt diet: blood pressure (Example 4); format: in vivo, rat; details: for systolic blood pressure lower than the hyperuricemic controls: at 7 weeks, enalapril 1 mg/kg/d or L-Arginine 1% in drinking water, p<0.05; for effect on systolic blood pressure of hyperuricemic rats: treatment from the outset, 7 weeks
Procedure: Rats were placed on either low salt diet, low salt diet with 2% oxonic acid, low salt diet with oxonic acid and enalapril (1 mg/kg/d in drinking water), or low salt diet with oxonic acid and L-Arginine (1% in drinking water).
as §2

Oc1ncnc2[nH]ncc12 [Allopurinol, allopurinol]
blood pressure and serum uric acid in hypertensive, hyperuricemic rats (Sprague-Dawley rats [1]): reduction in the blood pressure in association with a fall in serum uric acid values
Renin (Sprague-Dawley rats [2]; control 39.6 ± 2.0): 44.1 ± 1.6 % positive JGA
NOS-1 (Sprague-Dawley rats [2]; control 147.2 ± 12.4): 97.4 ± 5.6 positive cells/100 glomeruli
OPN (Sprague-Dawley rats [2]; mean±SE, control 0.9 ± 0.06): 1.3 ± 0.15 % increase
Type III collagen (Sprague-Dawley rats [2]; mean±SE, control 5.4 ± 0.3): 6.2 ± 0.6%
BUN (Sprague-Dawley rats [2]; mean±SE, control 14.4 ± 1.2): 15.2 ± 2.3 mg/dL
ED-1 (macrophages) (Sprague-Dawley rats [2]; mean±SE, control 18.3 ± 1.3): 20.5 ± 0.6 cells/mm2
OPN (Sprague-Dawley rats [3]; control 0.7 ± 0.08): 0.97 ± 0.03 % increase
Type III collagen (Sprague-Dawley rats [3]; control 7.2 ± 0.6): 9.6 ± 0.3 %
BUN (Sprague-Dawley rats [3]; control 16.6 ± 0.9): 17.7 ± 0.5 mg/dL
ED-1 (macrophages) (Sprague-Dawley rats [3]; control 27.8 ± 1.4): 25.2 ± 2.6 cells/mm2
Renin (Sprague-Dawley rats [3]; control 41.0 ± 1.9): 44.2 ± 1.3 % positive JGA
NOS-1 (Sprague-Dawley rats [3]; control 104.4 ± 11.5): 98.6 ± 5.1 positive cells/100 glomeruli
development of hyperuricemia and hypertension (Sprague-Dawley rats [4]): prevented

CCCCc1nc(Cl)c(CO)n1Cc1ccc(-c2ccccc2-c2nn[nH]n2)cc1 [Compound No. 9, losartan potassium]
uric acid excretion in urine (Concentration of Uric Acid) ([5]; 25 mg/man oral, in hunger, 4-8 hr): 32.4 ± 14.7 mg/h
uric acid excretion in urine (Concentration of Uric Acid) ([5]; 25 mg/man oral, in hunger, 8-12 hr): 28.7 ± 13.6 mg/h
uric acid excretion in urine (Concentration of Uric Acid) ([5]; 25 mg/man oral, in hunger, 12-24 hr): 19.7 ± 9.9 mg/h
uric acid excretion in urine (Concentration of Uric Acid) ([5]; 25 mg/man oral, in hunger, 24-40 hr): 33.2 ± 21.9 mg/h
uric acid excretion in urine (Concentration of Uric Acid) ([5]; 50 mg/man oral, in hunger, 0-4 hr): 52.8 ± 4.3 mg/h
uric acid excretion in urine (Concentration of Uric Acid) ([5]; 50 mg/man oral, in hunger, 8-12 hr): 39.1 ± 4.4 mg/h
uric acid excretion in urine (Concentration of Uric Acid) ([5]; 50 mg/man oral, in hunger, 12-24 hr): 22.2 ± 3.8 mg/h
uric acid excretion in urine (Concentration of Uric Acid) ([5]; 50 mg/man oral, in hunger, 24-40 hr): 26.6 ± 5.4 mg/h
uric acid excretion in urine (Concentration of Uric Acid) ([5]; 100 mg/man oral, after meal, 0-4 hr): 75.9 ± 19.0 mg/h
uric acid excretion in urine (Concentration of Uric Acid) ([5]; 100 mg/man oral, after meal, 4-8 hr): 59.0 ± 3.8 mg/h
uric acid excretion in urine (Concentration of Uric Acid) ([5]; 100 mg/man oral, after meal, 8-12 hr): 31.8 ± 4.5 mg/h
uric acid excretion in urine (Concentration of Uric Acid) ([5]; 100 mg/man oral, after meal, 12-24 hr): 19.7 ± 2.5 mg/h
uric acid excretion in urine (Concentration of Uric Acid) ([5]; 100 mg/man oral, after meal, 24-40 hr): 29.5 ± 4.1 mg/h
uric acid excretion in urine (Concentration of Uric Acid) ([5]; 100 mg/man oral, in hunger, 0-4 hr): 81.2 ± 15.7 mg/h
uric acid excretion in urine (Concentration of Uric Acid) ([5]; 100 mg/man oral, in hunger, 4-8 hr): 36.4 ± 7.7 mg/h
uric acid excretion in urine (Concentration of Uric Acid) ([5]; 100 mg/man oral, in hunger, 8-12 hr): 30.1 ± 6.8 mg/h
uric acid excretion in urine (Concentration of Uric Acid) ([5]; 100 mg/man oral, in hunger, 12-24 hr): 19.2 ± 4.2 mg/h
uric acid excretion in urine (Concentration of Uric Acid) ([5]; 100 mg/man oral, in hunger, 24-40 hr): 28.0 ± 7.2 mg/h
uric acid excretion in urine (Concentration of Uric Acid) ([5]; 200 mg/man oral, in hunger, 0-4 hr): 78.7 ± 15.3 mg/h
uric acid excretion in urine (Concentration of Uric Acid) ([5]; 200 mg/man oral, in hunger, 4-8 hr): 25.4 ± 6.6 mg/h
uric acid excretion in urine (Concentration of Uric Acid) ([5]; 200 mg/man oral, in hunger, 8-12 hr): 19.6 ± 5.2 mg/h
uric acid excretion in urine (Concentration of Uric Acid) ([5]; 200 mg/man oral, in hunger, 12-24 hr): 13.4 ± 2.3 mg/h
uric acid excretion in urine (Concentration of Uric Acid) ([5]; 200 mg/man oral, in hunger, 24-40 hr): 21.0 ± 3.0 mg/h
Concentration of Uric Acid in serum ([6]; 25 mg/man oral, in hunger, 0 hr (when administered)): 5.2 ± 0.5 mg/dL
Concentration of Uric Acid in serum ([6]; 25 mg/man oral, in hunger, 4 hr): 4.8 ± 0.6 mg/dL
Concentration of Uric Acid in serum ([6]; 25 mg/man oral, in hunger, 24 hr): 4.6 ± 0.6 mg/dL
Concentration of Uric Acid in serum ([6]; 50 mg/man oral, in hunger, 0 hr (when administered)): 6.1 ± 1.4 mg/dL
Concentration of Uric Acid in serum ([6]; 50 mg/man oral, in hunger, 4 hr): 5.3 ± 1.3 mg/dL
Concentration of Uric Acid in serum ([6]; 50 mg/man oral, in hunger, 24 hr): 5.6 ± 1.4 mg/dL
Concentration of Uric Acid in serum ([6]; 100 mg/man oral, after meal, 4 hr): 4.9 ± 1.0 mg/h
Concentration of Uric Acid in serum ([6]; 100 mg/man oral, in hunger, 0 hr (when administered)): 5.9 ± 0.9 mg/dL
Concentration of Uric Acid in serum ([6]; 100 mg/man oral, in hunger, 4 hr): 4.6 ± 0.7 mg/dL
Concentration of Uric Acid in serum ([6]; 100 mg/man oral, in hunger, 24 hr): 5.2 ± 0.8 mg/dL
Concentration of Uric Acid in serum ([6]; 200 mg/man oral, in hunger, 0 hr (when administered)): 5.6 ± 0.7 mg/dL
Concentration of Uric Acid in serum ([6]; 200 mg/man oral, in hunger, 4 hr): 4.3 ± 0.9 mg/dL
Concentration of Uric Acid in serum ([6]; 200 mg/man oral, in hunger, 24 hr): 5.0 ± 0.9 mg/dL

N=C(N)NCCC[C@H](N)C(=O)O [L-Arginine]
systolic blood pressure lower than the hyperuricemic controls (Sprague-Dawley rats [7]): 25 mm Hg
effect on systolic blood pressure of hyperuricemic rats (Sprague-Dawley rats [7]): largely prevented this increase

CCOC(=O)[C@H](CCc1ccccc1)N[C@@H](C)C(=O)N1CCC[C@H]1C(=O)O [enalapril]
systolic blood pressure lower than the hyperuricemic controls (Sprague-Dawley rats [7]): 25 mm Hg
effect on systolic blood pressure of hyperuricemic rats (Sprague-Dawley rats [7]): lowest systolic blood pressures
